Data: PubChem BioAssay AID248 (DTP/NCI, 2004)
“And” between values parts separate entries of the source, which are not always exact repeats. Identical values can stand only once. Inconclusive results and toxic doses are left out.

Test system: L1210 leukemia ip in BDF1 mice, survival T/C
Assay: NCI In Vivo Anticancer Drug Screen. Data for tumor model L1210 Leukemia (intraperitoneal) in B6D2F1 (BDF1) mice
Details: endpoint: mean survival time, higher = longer survival
Method in brief: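 Transplantable tumor model; survival measured in treated vs vehicle control mice. Value = treated/control.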

[1] = dose: 0.5 mg/kg/injection, schedule: Q01DX001 (ip), vehicle: other

## COC(C(=O)C(O)C(C)O)C1CC2C=C3C=C(OC4CC(OC5CC(O)C(OC)C(C)O5)C(OC(C)=O)C(C)O4)C(C)C(=O)C3=C(O)C2=C(O)C1OC1CC(OC2CC(OC3CC(C)(O)C(OC(=O)C(C)C)C(C)O3)C(O)C(C)O2)C(O)C(C)O1 (stereo unspecified)
dose: 0.25 mg/kg/injection, schedule: Q01DX001 (ip), vehicle: other
  T/C: 121 % of control
[1]
  T/C: 113 % of control
dose: 1.0 micrograms/kg/injection, schedule: Q01DX009 (ip), vehicle: other
  T/C: 111 % of control
dose: 1.0 micrograms/kg/injection, schedule: Q01DX009 (ip), vehicle: saline
  T/C: 111 % of control
dose: 2.0 micrograms/kg/injection, schedule: Q01DX009 (ip), vehicle: other
  T/C: 105 % of control
dose: 2.0 micrograms/kg/injection, schedule: Q01DX009 (ip), vehicle: saline
  T/C: 117 % of control
dose: 4.0 micrograms/kg/injection, schedule: Q01DX009 (ip), vehicle: other
  T/C: 109 % of control
dose: 4.0 micrograms/kg/injection, schedule: Q01DX009 (ip), vehicle: saline
  T/C: 117 % of control
dose: 5.0 micrograms/kg/injection, schedule: Q01DX001 (ip), vehicle: saline
  T/C: 114 % of control
dose: 8.0 micrograms/kg/injection, schedule: Q01DX009 (ip), vehicle: other
  T/C: 121 % of control
dose: 10.0 micrograms/kg/injection, schedule: Q01DX001 (ip), vehicle: saline
  T/C: 123 % of control
dose: 16.0 micrograms/kg/injection, schedule: Q01DX009 (ip), vehicle: other
  T/C: 118 % of control
dose: 16.0 micrograms/kg/injection, schedule: Q01DX009 (ip), vehicle: saline
  T/C: 117 % of control
dose: 20.0 micrograms/kg/injection, schedule: Q01DX001 (ip), vehicle: saline
  T/C: 114 % of control
dose: 32.0 micrograms/kg/injection, schedule: Q01DX009 (ip), vehicle: saline
  T/C: 112 % of control
dose: 37.0 micrograms/kg/injection, schedule: Q01DX009 (ip), vehicle: other
  T/C: 110 % of control
dose: 40.0 micrograms/kg/injection, schedule: Q01DX001 (ip), vehicle: saline
  T/C: 120 % of control
dose: 62.5 micrograms/kg/injection, schedule: Q04DX003 (ip), vehicle: saline
  T/C: 107 % of control
dose: 80.0 micrograms/kg/injection, schedule: Q01DX001 (ip), vehicle: saline
  T/C: 103 % of control
dose: 125.0 micrograms/kg/injection, schedule: Q01DX001 (ip), vehicle: saline
  T/C: 151 % of control and 331 % of control
dose: 125.0 micrograms/kg/injection, schedule: Q04DX003 (ip), vehicle: saline
  T/C: 104 % of control
dose: 125.0 micrograms/kg/injection, schedule: Q08DX002 (ip), vehicle: saline
  T/C: 163 % of control
dose: 250.0 micrograms/kg/injection, schedule: Q01DX001 (ip), vehicle: saline
  T/C: 116 % of control and 198 % of control and 283 % of control

## CN(C)C(=O)c1ccc(NC(=O)N(CCCl)N=O)cc1
[1]
  T/C: 102 % of control
dose: 1.0 mg/kg/injection, schedule: Q01DX001 (ip), vehicle: other
  T/C: 120 % of control
dose: 2.0 mg/kg/injection, schedule: Q01DX001 (ip), vehicle: other
  T/C: 150 % of control
dose: 8.0 mg/kg/injection, schedule: Q01DX001 (ip), vehicle: other
  T/C: 182 % of control
dose: 16.0 mg/kg/injection, schedule: Q01DX001 (ip), vehicle: other
  T/C: 286 % of control
dose: 31.0 mg/kg/injection, schedule: Q01DX001 (ip), vehicle: other
  T/C: 88 % of control

## O=C(CI)NCc1cn(C2CC(O)C(CO)O2)c(=O)[nH]c1=O (stereo unspecified)
dose: 25.0 mg/kg/injection, schedule: Q01DX005 (ip), vehicle: water
  T/C: 105 % of control
dose: 50.0 mg/kg/injection, schedule: Q01DX005 (ip), vehicle: water
  T/C: 116 % of control
dose: 100.0 mg/kg/injection, schedule: Q01DX005 (ip), vehicle: water
  T/C: 116 % of control

## CCOC(=O)c1ccc(NC(=O)Oc2ccccc2F)cc1
dose: 100.0 mg/kg/injection, schedule: Q01DX009 (ip), vehicle: Klucel (hydroxypropylcellulose) (HPC)
  T/C: 91 % of control
dose: 200.0 mg/kg/injection, schedule: Q01DX009 (ip), vehicle: Klucel (hydroxypropylcellulose) (HPC)
  T/C: 98 % of control
dose: 400.0 mg/kg/injection, schedule: Q01DX009 (ip), vehicle: Klucel (hydroxypropylcellulose) (HPC)
  T/C: 96 % of control

## CCOC(=O)c1ccc(N=CN(C)C)cc1
dose: 100.0 mg/kg/injection, schedule: Q04DX003 (ip), vehicle: Klucel (hydroxypropylcellulose) (HPC)
  T/C: 100 % of control
dose: 200.0 mg/kg/injection, schedule: Q04DX003 (ip), vehicle: Klucel (hydroxypropylcellulose) (HPC)
  T/C: 95 % of control
dose: 400.0 mg/kg/injection, schedule: Q04DX003 (ip), vehicle: Klucel (hydroxypropylcellulose) (HPC)
  T/C: 107 % of control

## CNC(=O)N(CCC#N)C1CCCCC1
dose: 100.0 mg/kg/injection, schedule: Q04DX003 (ip), vehicle: other
  T/C: 104 % of control
dose: 200.0 mg/kg/injection, schedule: Q04DX003 (ip), vehicle: other
  T/C: 106 % of control
dose: 400.0 mg/kg/injection, schedule: Q04DX003 (ip), vehicle: other
  T/C: 96 % of control
